Results taken from paper PMC9462760, “A potent and selective inhibitor for the modulation of MAGL activity in the neurovasculature” (PLoS ONE, 2022).

Tests used:
[1] = target: T1, Monoacylglycerol lipase (MAGL) (Homo sapiens, UniProt Q99685); assay: competitive ABPP in human brain lysate at […] ([…] decrease of MAGL signal); assay type: cell-based
T1 construct: gene MGLL
T1 sequence (Q99685 1-303): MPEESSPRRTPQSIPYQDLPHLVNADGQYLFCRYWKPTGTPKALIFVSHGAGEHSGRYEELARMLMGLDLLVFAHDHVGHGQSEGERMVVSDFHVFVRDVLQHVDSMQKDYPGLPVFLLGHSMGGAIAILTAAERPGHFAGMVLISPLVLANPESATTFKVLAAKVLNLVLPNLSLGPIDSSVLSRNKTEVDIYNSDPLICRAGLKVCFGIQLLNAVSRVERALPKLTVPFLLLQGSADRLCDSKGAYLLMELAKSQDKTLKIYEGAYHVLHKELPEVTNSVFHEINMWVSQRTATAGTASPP

[2] = target: T2, Monoacylglycerol lipase (MAGL) (Mus musculus, UniProt O35678); assay: competitive ABPP in mouse brain lysate at […] ([…] decrease of MAGL signal); assay type: cell-based
T2 construct: gene Mgll
T2 sequence (O35678 1-303): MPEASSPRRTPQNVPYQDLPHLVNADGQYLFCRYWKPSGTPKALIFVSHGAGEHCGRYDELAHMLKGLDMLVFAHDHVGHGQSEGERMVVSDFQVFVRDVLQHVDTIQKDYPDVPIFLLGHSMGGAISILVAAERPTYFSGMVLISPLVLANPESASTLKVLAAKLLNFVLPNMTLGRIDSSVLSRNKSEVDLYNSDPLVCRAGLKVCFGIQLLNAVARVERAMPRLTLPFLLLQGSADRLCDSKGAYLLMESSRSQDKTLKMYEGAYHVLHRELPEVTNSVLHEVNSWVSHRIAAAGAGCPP

O=C(Oc1ccc([N+](=O)[O-])cc1)N1CCC(C(O)(c2ccc3c(c2)OCO3)c2ccc3c(c2)OCO3)CC1 [JZL 184]
inhibition at 10 µM [1]: 83% | inhibition at 10 µM [2]: 78%
